Assay results from PubChem BioAssay AID179 (DTP/NCI, 2004).
The source made the active and inactive calls.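 Rule for the calls: active = compounds giving half or more protection of infected cells from virus-caused growth loss, again on retest; inactive = the rest.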

Tested on: CEM cells HIV-1 protection, formazan growth assay
Assay: NCI AIDS Antiviral Assay
Conditions: for IC50: measured here: growth of uninfected CEM cells
Method in brief: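 Steps: treat uninfected and HIV-1-infected human CEM cells at five drug levels; quantify growth by soluble formazan; retest any compound reaching 50% protection; classify actives from the retest.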

Row | SMILES | EC50 [µM] | IC50 [µM] | outcome
1 | C=CC1(CC/C(=C\[N+](=O)[O-])c2ccc(OC)c(OC)c2)OCC(C)(C)CO1 | > 200 | 17.4 | –
2 | Cn1c2cccc3nnc4cccc(c4c32)n1C | – | – | inactive
3 | NC(CSS(=O)(=O)O)=NCCCc1ccccc1 | > 200 | 110 | –
4 | CCc1n[nH]c(=O)n1NC(=O)/C=C\C(=O)O | > 200 | > 200 | –
5 | Cc1c(C(=O)CC(=O)C(=O)Nc2ccc(Cl)cc2)[n+](=O)c2ccccc2n1[O-] | > 12.6 | > 12.6 | –
6 | COC(=NC(C)C)NC(C)C | > 200 | > 200 | –
7 | Nc1nc(N)c(CCCCc2ccccc2)c(Cc2ccccc2)n1 | – | – | inactive
8 | N#C/C(=C/c1cccnc1)C(=O)c1ccccc1 | > 398 | 67.6 | –
9 | CN(C)c1ccc2c(c1)-c1cc(N(C)C)ccc1C2=CC=C(C#N)C#N | > 4.27 | > 4.27 | –
10 | CC(=O)/C(=C/n1c(=S)sc2ccccc21)C(=O)Nc1ccccc1C | > 200 | 170 | –
11 | CC1CCCCNC1=S (configuration not stated) | > 200 | > 200 | –
12 | Cc1cc(Cl)cc2c1S/C(=C1\Sc3c(C)cc(Cl)cc3C1=O)C2=O | > 200 | > 200 | –
13 | c1ccc(OCc2nn3c(-c4ccccc4)nnc3s2)cc1 | > 200 | > 200 | –
14 | CCOP(=O)(OCC)/C(C#N)=C/c1cccc(C#N)c1 | > 617 | 102 | –
15 | O=C1OC2C=CCC1C2 (configuration not stated) | > 200 | > 200 | –
16 | Nc1c(O)c(C(=O)O)cc2ccccc12 | > 200 | 17.8 | –
17 | N#CCC(=O)N/N=C1\C(=O)N(c2ccc(Cl)cc2)C(=O)C(=O)C1c1nc2ccccc2o1 (configuration not stated) | – | – | inactive
18 | C=CCc1c(O)c2nsnc2c2nsnc12 | > 200 | > 200 | –
19 | N#CCCN(CCN(CCN(C(=O)Nc1ccccc1)c1ccccc1)C(=O)Nc1ccccc1)C(=O)Nc1ccccc1 | > 200 | 9.33 | –
20 | CCOc1ccc(C(=O)Nc2ccc(C3=NCCN3)cc2)cc1C(=O)Nc1ccc(C2=NCCN2)cc1 | 2.95 | 117 | –
21 | O=S(=O)(Nc1ccc(NS(=O)(=O)c2ccccc2)c(N2N=N2)c1)c1ccccc1 | > 200 | 51.3 | –
22 | CCOC(=O)/C(O)=C(/C=N\C(=S)Nc1ccccc1Cl)C(=O)OCC | > 200 | > 200 | –

Row | SMILES | EC50 [µM] | IC50 [µM] | outcome
23 | O=C1c2ccccc2-c2cc3ccccc3c(=O)n21 | – | – | inactive
24 | CC(C)Sc1nc(C#N)cc2c1CCCC2 | > 200 | 57.5 | –
25 | [Br][Ni][Br].[NH-]CC[NH-].[NH-]CC[NH-] | > 200 | 67.6 | –
26 | CN(C)c1ccc(/C=C/C(=O)c2ccccc2)cc1 | > 39.8 | 14.8 | –
27 | CC1(C)C(=NNC(=O)C[N+](C)(C)C)C(C)(C)C1=NNC(=O)C[N+](C)(C)C | > 28.8 | > 28.8 | –
28 | N#CC(C#N)C1CN2CCC1CC2 (configuration not stated) | > 200 | > 200 | –
29 | Fc1ccc(Oc2nc3ccccc3nc2-c2ccccc2)cc1 | – | – | inactive
30 | Cc1cc(C#N)c(=S)n(C2OC(CO)C(O)C(O)C2O)c1C (configuration not stated) | > 200 | > 200 | –
31 | O=P1(N2CCCCC2)OCC2(CO1)COP(=O)(N1CCCCC1)OC2 (configuration not stated) | > 200 | > 200 | –
32 | CCOC(=O)c1cn(CC)c(=O)n2c1nc1ccccc12 | > 200 | 117 | –
33 | CCOC(=O)Cc1csc(N=Nc2c(O)[nH]c3ccccc23)n1 | > 200 | 110 | –
34 | O=P1(O)c2ccccc2CCc2ccccc21 | > 200 | > 200 | –
35 | c1ccc(N=C2SC(c3ccccc3)CN2C23CC4CC(CC(C4)C2)C3)cc1 (configuration not stated) | > 200 | > 200 | –
36 | O=C1c2ccncc2C(=O)c2c1[nH]c1ccccc21 | > 200 | 3.16 | –
37 | N=c1c2ncn(C3OC(CO)CC3F)c2ncn1O (configuration not stated) | – | – | inactive
38 | CCCCCCCCCCCCCCCCCC(=O)OC[C@H](COP(=O)(O)OCCNC(=O)CCC(=O)OCCC=C(c1cc(Cl)c(OC)c(C(=O)OC)c1)c1cc(Cl)c(OC)c(C(=O)OC)c1)OC(=O)CCCCCCCCCCCCCCCCC | > 100 | > 100 | –
39 | Oc1c(Br)cc(Br)cc1-c1[nH]c(Br)c(Br)c1Br | > 234 | 1.02 | –
40 | Cn1cnnc1SC(F)(F)c1nc2ccccc2o1 | 191 | > 200 | –
41 | CC(NCc1c(O)ccc2c(-c3ccccc3)cc(=O)oc12)C(=O)O (configuration not stated) | > 200 | > 200 | –
42 | COC(=O)c1cc2cccc(CS(=O)(=O)O)c2cc1O | > 200 | 21.4 | –
43 | CC(=O)/C(=C/N1C(=O)CC(=O)NC1=S)C(=O)Nc1ccccc1C | > 200 | 178 | –
44 | COc1cc2c(c(OC)c1OC)CCC1(C)C(=O)NN=C21 (configuration not stated) | > 871 | 275 | –

Row | SMILES | EC50 [µM] | IC50 [µM] | outcome
45 | Cc1cccc2oc3c(CC(=O)O)cccc3c(=O)c12 | > 200 | > 100 | –
46 | O=C(O)CCc1ccc(O)c(O)c1 | – | – | inactive
47 | O=C(NCCCC1C2CCC(C2)C1CNC(=O)Nc1cccc(Cl)c1)Nc1cccc(Cl)c1 (configuration not stated) | > 200 | 3.63 | –
48 | c1ccc(-c2cc(-c3cc(-c4ccccc4)n[nH]3)[nH]n2)cc1 | > 200 | > 200 | –
49 | NC(=O)c1ccc(NC=O)cc1 | > 1510 | 977 | –
50 | O=[N+]([O-])c1ccc(N/N=C2\C=CCCC2)c([N+](=O)[O-])c1 | > 200 | > 200 | –
51 | COc1ccc(COC2C(C/[N+]([O-])=N\Nc3ccc([N+](=O)[O-])cc3)OC3OC(C)(C)OC32)cc1 (configuration not stated) | > 200 | 12.6 | –
52 | COc1ccc(CCNC(=S)/N=C/C2=C(O)CC(C)(C)CC2=O)cc1OC | > 200 | > 200 | –
53 | CC(=O)OC1CC2C(CCC3(C)C(OC(C)=O)CCC23)c2c(OS(=O)(=O)c3ccccc3)ccc(C)c21 (configuration not stated) | > 100 | > 100 | –
54 | O=C1Cc2c([nH]c3c(Br)cccc23)-c2ccccc2N1 | > 200 | 29.5 | –
55 | CC(C)(C)N1OC2(CCCCC2)n2c(=O)c3ccccc3c(=O)n2C1c1ccccc1 (configuration not stated) | > 589 | > 589 | –
56 | C=C1C(=O)C=C2C=C3C(=O)C(C)(C)C[C@]3(O)C12C (some centres not stated) | > 1020 | 0.389 | –
57 | O=NNc1ccc(S(=O)(=O)c2ccccc2)cn1 | > 200 | > 200 | –
58 | CN(C)/N=C/c1cn(C)c(=O)n(C)c1=O | > 200 | > 200 | –
59 | Cc1ccc2c(n1)C(N1CCOCC1)=CC(=O)C2=O | – | – | inactive
60 | O=c1oc2c/c(=C\c3ccc([N+](=O)[O-])cc3)c(=O)c3cccc1c3-2 | > 200 | 30.9 | –
61 | O=c1[nH]c(=O)n(C2C=CC(CO)O2)cc1C(OCC(F)(F)F)OCC(F)(F)F (configuration not stated) | > 141 | 72.4 | –
62 | COc1ccc(C(=O)C(CC2C(=O)CC(C)(C)C(C(=O)C(=O)Nc3c(C)cccc3C)C2=O)c2ccc(OC)cc2)cc1 (configuration not stated) | > 427 | 372 | –
63 | Cc1ccc(Oc2ccc(C(=O)c3cccc(C(=O)c4ccc(Oc5ccc(C)cc5)cc4)n3)cc2)cc1 | > 3.8 | > 3.8 | –
64 | COC(=O)c1c2n(c3ccccc13)C[C@H]1OC(C)(C)O[C@@H]21 | > 200 | 126 | –
65 | c1ccc(Nn2c(CCCCCCCCc3nnc(COc4ccccc4)n3Nc3ccccc3)nnc2COc2ccccc2)cc1 | > 2 | > 2 | –
